Tests used:
rat primary astrocytes [1] = experiment: Intracellular GSH by GSH-Glo Assay in rat primary astrocyte culture; type: cell-based; details: standard culture conditions (no cysteine depletion); 48 hrs after treatment; normalized to total proteins
Description: Intracellular GSH was measured in rat primary astrocytes in culture by using a GSH-Glo™ Assay, which is a luminescent-based assay for the detection and quantification of reduced and/or total glutathione levels in cells. The assay converted luciferin derivatives into luciferin in the presence of GSH. The reaction was catalyzed by a glutathione S-transferase (GST) enzyme supplied in the kit. The luciferin formed was detected in a coupled reaction using Ultra-Glo™ Recombinant Luciferase that generated a glow type luminescence that was proportional to the amount of glutathione present in cells. A standard curve was used for each biological replicate and at least 4 technical replicates were done for each condition and for each biological replicate. 10% of lysate of each technical and biological replicate was used to measure protein amount by BCA and used to normalize the GSH intracellular content to total proteins. Buthionine sulfoximine (BSO) a specific inhibitor of γ-glutamylcysteine ligase (GCL) was added at 15 mM at the time of the start of the treatment to confirm the specificity of the readout. Measurements were performed 48 hrs after treatment. Results were compared to the control condition for each biological replicate and for each condition.

rat primary astrocytes [2] = experiment: Cytoplasmic reactive oxygen species (ROS) measurement with CellROX Deep Red; type: cell-based; details: 48 hrs after treatment; oxidative stress triggered by 250 μM tBHP for 1 hour; vs control
Description: Cytoplasmic ROS was measured in rat primary astrocytes in culture by CellROX® Deep Red reagent, a novel cell-permeant dye with absorption/emission maxima of ˜644/665 nm. CellROX® Deep Red reagent while in a reduced state is non-fluorescent and becomes fluorescent upon oxidation by reactive oxygen species with emission maxima ˜665. CellMask™-green stains plasma membrane and DAPI stains nuclei. We used the green channel and the dapi to segment the image in cytoplasmic and nuclear areas and measure the CellROX deep red signal in these areas. As CellROX® Deep Red is a better read out for cytoplasmic ROS, we measure the average intensity in the cytoplasm and normalized to the average cytoplasmic area. Cell count using DAPI was performed to establish toxicity or cell detachment for each condition. Images were taken to cover all the area of the well where cells were seeded and at least 4 technical replicates were done for each condition and for each biological replicate. Measurements were performed at 48 hrs after treatment at baseline and after oxidative stress where oxidative stress was triggered by 250 μM tBHP for 1 hour. Results were compared to the control condition at baseline for each biological replicate and for each condition.

rat primary astrocytes [3] = experiment: Intracellular GSH in astrocytes in medium reduced in cysteine and methionine; type: cell-based; details: medium depleted of methionine and cystine, supplemented with 15% FBS
Description: Intracellular GSH was measured in rat primary astrocytes in culture by using a GSH-Glo™ Assay, which is a luminescent-based assay for the detection and quantification of reduced and/or total glutathione levels in cells. The assay converted luciferin derivatives into luciferin in the presence of GSH. The reaction was catalyzed by a glutathione S-transferase (GST) enzyme supplied in the kit. The luciferin formed was detected in a coupled reaction using Ultra-Glo™ Recombinant Luciferase that generated a glow type luminescence that was proportional to the amount of glutathione present in cells. A standard curve was used for each biological replicate and at least 4 technical replicates were done for each condition and for each biological replicate. 10% of lysate of each technical and biological replicate was used to measure protein amount by BCA and used to normalize the GSH intracellular content to total proteins. […] Measurements were performed 48 hrs after treatment. […] To measure GSH increase after N-acetyl cysteine (Nac) and L-cysteine supplementation, rat primary astrocytes were cultured in medium depleted of methionine (a precursor of cysteine) and cystine but still supplemented with 15% FBS to not have a full depletion but rather a reduction of these amino acids. Experiments were performed only with the same batch of FBS to avoid any difference in amino-acid content amongst batches. […]

rats [4] = experiment: Operant conditioning, progressive ratio reinforcement schedule (motivated behaviour); type: in vivo, rat; details: vs vehicle
Description: Adult male outbred rats were trained for nose poke for saccharine food pellets for one week on an FR1 training schedule as described in the methods below. Rats were then treated with either normal drinking water (vehicle) or N-acetyl cysteine (NAC) in the drinking water (FIG. 22A) at a dose that was previously shown to enhance GSH levels (FIG. 22B). Following 2 weeks of treatment, rats were given an additional 2 training sessions, followed 24 h later by a progressive ratio session designed to test their motivated behaviour. During this progressive ratio session, rats have to increasingly work harder to earn the saccharine pellet, as described in the methods below. […] The breakpoint is defined as the last step in the session where the animals received a reward and is a direct correlate of their willingness to exert an effort. […] Animals: Adult male Wistar rats (Charles Rivers, Saint-German-Nuelle, France) weighing 250-275 gr at the beginning of the experiment were used for all experiments. Rats were individually housed in cages in housing colonies on a 12:12 h reversed light:dark cycle with lights on at 20:00, and lights-off at 8:00. Food and water were available ad libitum. Following a week of acclimatization to the animal facilities, rats were handled for 2 min per day for three days prior to the start of the experiments, in order to habituate to the experimenters. Operant conditioning: Ten days after introduction to the reversed day-night cycle, rats started training in a fixed ratio 1 reinforcement schedule (FR1). Operant chambers (Coulbourn Instruments, Holliston, Mass., US), placed in sound attenuating cubicles, were equipped with a grid, underneath which a tray with standard bedding material was placed for collection of feces and urine after each training session. Each chamber had one food tray and two ports placed on either side of the tray. A cue light was placed in each port and the food tray, whereas a house light was placed above the food tray. The right-hand side port of each chamber was designated as “active”, meaning that spontaneous nosepoking would result in the drop of one 45 mg food pellet (Bio-Serv, Flemington, N.J., USA) to the food tray. Upon nosepoking in the active port, the cue and house lights were turned off, while the tray light turned on and the pellet dropped to the food tray. […] Subsequently, the chamber returned to its initial condition. Each training session lasted maximally two hours or until a rat acquired 100 pellets. Each rat received six training sessions (one training on each day for five consecutive days, followed by two days without training and one training session on day 8). Only rats that finished at least two training sessions acquiring 100 pellets before the two-hour mark were used for progressive ratio experiments. Subsequently, rats were treated with N-acetyl cysteine in the drinking water (500 mg/L) or continued having access to normal water (control). After two weeks of treatment, rats were exposed to another two days of FR1 training to ensure their training performance was similar to pre-treatment levels. To test motivated behaviour, rats were exposed to a progressive ratio reinforcement schedule (progressive ratio test). Progressive ratio sessions were identical to training sessions except that the operant requirement in each trial (T) was the integer (rounded down) of the function 1.4^(T-1) starting at one nosepoke for the first three trials and increasing in subsequent trials for rats (Wanat et al. Nat Neurosci. 2013; 16(4):383-5). Progressive ratio sessions lasted two hours. Correct nosepokes (i.e. nosepokes in the active port and outside the timeout period, thus resulting in food delivery) were calculated to evaluate behavioural performance, as well as the number of acquired rewards and the last completed ratio (breakpoint). Investigation of the Nucleus accumbens was undertaken in cannulated rats which were then moved to a reverse light-dark cycle to recover for 10 days. […]

rats [5] = experiment: GSH levels in the nucleus accumbens of treated rats; type: in vivo, rat
Nrf2 = experiment: Measurement of nuclear Nrf2 in astrocytes (immunostaining); type: cell-based, rat; details: 48 hrs after treatment; for increase Nrf2 levels in the cell nucleus: significant; for Nrf2 activation: vs control (water or 0.1% DSMO)
Description: Nuclear Nrf2 was measured in rat primary astrocytes in culture. The cells were stained with Nrf2 (Abcam ab89443 1:500), Tubulin (Abcam ab 89984 1:1000) antibodies and DAPI as nuclear counterstaining. We used the tubulin channel and the DAPI to segment the image in cytoplasmic and nuclear areas and measure the Nrf2 signal in these areas. We measure the average intensity in the nucleus and normalized to the average nuclear area. Cell count using DAPI was performed to establish toxicity or cell detachment for each condition. Images were taken to cover all the area of the well where cells were seeded and at least 6 technical replicates were done for each condition and for each biological replicate. Measurements were performed 48 hrs after treatment with each of the compounds: N-Acetylcysteine dissolved in water, while Puerarine, Sulfurophane, Taurine at different doses were dissolve in a 0.1% DSMO final solution. They were compared to the control in each condition which was water or 0.1% DSMO alone. Results were compared to the control condition for each biological replicate and for each condition. Statistics were done using Kruskal-Wallis Multiple Comparison test.

[6] = single infusion in the Nucleus Accumbens, 1 μl of 7 μg/μl, 24 hours before
[7] = NAC in the drinking water (500 mg/L), 2 weeks

CCNC(=O)CC[C@H](N)C(=O)O [L-theanine]
intracellular glutathione (rat primary astrocytes [1]): increases intracellular glutathione
reactive oxygen species after oxidative stress (rat primary astrocytes [2]): decreases reactive oxygen species

N[C@@H](CS)C(=O)O [L-cysteine]
GSH intracellular level (rat primary astrocytes [3]): significantly increase the GSH intracellular level

CCCCS(=N)(=O)CCC(N)C(=O)O (stereo not drawn) [BSO, Buthionine sulfoximine]
change in breakpoint (PR-schedule) (rats [4]; [6]): −68%
change in correct nosepokes (PR-schedule) (rats [4]; [6]): −60%
change in rewards (PR-schedule) (rats [4]; [6]): −22%
reduction of GSH levels in the Nucleus Accumbens (rats [5]; single infusion in the Nucleus Accumbens, 1 μl of 7 μg/μl, 24 hours before the test, vs vehicle): 29%

C[N+](C)(C)C(Cc1c[nH]c(S)n1)C(=O)O.[OH-] (stereo not drawn) [Ergothioneine, 1-carboxy-2-[2-mercaptoimidazole-4-(or 5)-yl]ethyl]-trimethyl-ammonium hydroxide]
increase Nrf2 levels in the cell nucleus (Nrf2; 0.5 mM): ≤ 18%
intracellular glutathione (rat primary astrocytes [1]): increases intracellular glutathione
reactive oxygen species after oxidative stress (rat primary astrocytes [2]): decreases reactive oxygen species

NCCS(=O)(=O)O [Taurine, 2-aminoethanesulfonic acid]
Nrf2 activation (Nrf2): does not activate Nrf2
intracellular glutathione (rat primary astrocytes [1]): increases intracellular glutathione
reactive oxygen species after oxidative stress (rat primary astrocytes [2]): decreases reactive oxygen species

CC(=O)N[C@@H](CS)C(=O)O [N-Acetylcysteine, reference compound]
breakpoint level in progressive ratio session (rats [4]; [7]): significantly higher breakpoint level
nose pokes in progressive ratio session (rats [4]; [7]): significantly more nose pokes
number of rewards in progressive ratio session (rats [4]; [7]): greater number of rewards
Nrf2 activation (Nrf2): does not activate Nrf2
intracellular glutathione (rat primary astrocytes [1]): does not increase intracellular glutathione
GSH in the nucleus accumbens (rats [5]; NAC in the drinking water (500 mg/L), 2 weeks, vs vehicle treated rats): enhanced GSH in the nucleus accumbens
GSH intracellular level (rat primary astrocytes [3]): significantly increase the GSH intracellular level
reactive oxygen species after oxidative stress (rat primary astrocytes [2]): decreases reactive oxygen species

C[S+]([O-])CCCCN=C=S (stereo not drawn) [Sulfurophane]
increase Nrf2 levels in the cell nucleus (Nrf2; 2 μM): ≤ 20%
intracellular glutathione (rat primary astrocytes [1]): increases intracellular glutathione
reactive oxygen species after oxidative stress (rat primary astrocytes [2]): decreases reactive oxygen species

O=c1c(-c2ccc(O)cc2)coc2c([C@@H]3O[C@H](CO)[C@@H](O)[C@H](O)[C@H]3O)c(O)ccc12 [Puerarine]
increase Nrf2 levels in the cell nucleus (Nrf2; highest dose of 10 μm): ≤ 20%
intracellular glutathione (rat primary astrocytes [1]): increases intracellular glutathione
reactive oxygen species after oxidative stress (rat primary astrocytes [2]): decreases reactive oxygen species after oxidative stress in a dose dependent manner

Source: US20230000806A1, “COMPOSITIONS AND METHODS FOR GLUTATHIONE ENHANCEMENT FOR USE IN BRAIN HEALTH” (SOCIETE DES PRODUITS NESTLE S.A., priority 2019, published 2023)
